# Assay results: patent publication US20150086530A1, “DOSING REGIMENS FOR THE TREATMENT OF POMPE DISEASE” (Amicus Therapeutics, Inc., priority 2012, published 2015)
# Read-outs that look alike come from different tables or passages of the source.
# Columns and labels:
# [1] = Cmax following 30 mg/kg oral AT2220 or AT2221 in mice; format: in vivo; conditions: mouse, plasma
# [2] = AT2220 concentration in muscle biopsies by LC-MS/MS in Pompe patients; format: in vivo, human; conditions: for muscle concentrations from Day 3 or Day 7 biopsies: 50 mg and 100 mg, lower limit of quantitation 8 ng/g; for concentration at 7 day / concentration at 3 day: human, muscle, oral, read-out: Muscle AT2220 Conc
# Description: GAA enzyme activity will be examined in muscle biopsy samples. One piece of muscle tissue will be removed as described in Table 1. GAA activity in muscle will be determined by a validated assay measuring enzyme activity using 4-MUG, with and without Con A. GAA protein levels will be measured by Western blotting using anti-human GAA antibody. 1-deoxynojirimycin hydrochloride concentrations in muscle samples collected in Period 2 will be determined using a validated LC-MS/MS assay.
# GAA = experiment: rhGAA activity in WBC (PBMCs) of Pompe patients; format: in vivo, human
# Description: GAA activity in WBCs will be determined in blood samples by a validated assay measuring enzyme activity using 4-MUG, with and without Con A. GAA protein levels will be measured by Western blotting using anti-human GAA antibody.
# [3] = Banati et al. 2011, cited from earlier work
# [4] = Cohort 1 (50 mg AT2220 in Period 2), Day 2, arithmetic mean, N 4
# [5] = Cohort 1 (50 mg AT2220 in Period 2), Day 7, arithmetic mean, N 4
# [6] = Cohort 1 (50 mg AT2220 in Period 2), Time 0, arithmetic mean, N 4
# [7] = Cohort 1 (50 mg AT2220 in Period 2), Time 4 h, arithmetic mean, N 4
# [8] = Cohort 2 (100 mg AT2220 in Period 2), Day 2, arithmetic mean, N 6
# [9] = Cohort 2 (100 mg AT2220 in Period 2), Day 3, arithmetic mean, N 3
# [10] = Cohort 2 (100 mg AT2220 in Period 2), Day 7, arithmetic mean, N 3
# [11] = Cohort 2 (100 mg AT2220 in Period 2), Time 0, arithmetic mean, N 6
# [12] = Cohort 2 (100 mg AT2220 in Period 2), Time 4 h, arithmetic mean, N 6
# [13] = Cohort 3 (250 mg AT2220 in Period 2), Day 2, arithmetic mean, N 6
# [14] = Cohort 3 (250 mg AT2220 in Period 2), Day 3, arithmetic mean, N 3
# [15] = Cohort 3 (250 mg AT2220 in Period 2), Day 7, arithmetic mean, N 3
# [16] = Cohort 3 (250 mg AT2220 in Period 2), Time 0, arithmetic mean, N 6
# [17] = Cohort 3 (250 mg AT2220 in Period 2), Time 4 h, arithmetic mean, N 6
compound,measurement,setting,value
"OC[C@H]1NC[C@H](O)[C@@H](O)[C@@H]1O [AT2220, (2R,3R,4R,5S)-2-hydroxymethyl-piperidine-3,4,5-triol]",Cmax,[1],~40 µM
same,muscle concentrations from Day 3 or Day 7 biopsies,[2],either below or near the lower limit of quantitation
same,muscle concentrations from Day 3 or Day 7 biopsies,[2]; listed as 1-DNJ-HCl,either below or just above the lower limit of quantification
same,Muscle AT2220 Conc,"[2]; Cohort 2, 100 mg AT2220, Period 2, biopsy Day 3, individual subjects, LLOQ = 8.0 ng/g (16.0 or […] for diluted samples)",BLQ^c
same,muscle AT2220 concentrations,"[2]; Cohort 3 (250 mg) vs lower doses, preliminary",Dose-related increases
same,subjects with a quantifiable AT2220 concentration in muscle,"[2]; Cohort 3 (250 mg), biopsies 3 or 7 days post dose, preliminary",4 of 6
same,Muscle AT2220 Conc,"[2]; Cohort 3, 250 mg AT2220, Period 2, biopsy Day 7, individual subjects, LLOQ = 8.0 ng/g (16.0 or […] for diluted samples)",27.9 ng/g
same,Muscle AT2220 Conc,"[2]; Patient D, 50 mg, Period 2, Day 7, LLOQ = 8.0 ng/g",BLQ
same,Muscle AT2220 Conc,"[2]; Patient F, 100 mg, Period 2, Day 7, sample diluted 2-fold, LLOQ = […]",BLQ^b
same,Muscle AT2220 Conc,"[2]; Patient G, 100 mg, Period 2, Day 7, LLOQ = 8.0 ng/g",BLQ
same,Muscle AT2220 Conc,"[2]; Patient H, 100 mg, Period 2, Day 3, sample diluted 2-fold, LLOQ = […]",BLQ^b
same,Muscle AT2220 Conc,"[2]; Patient I, 100 mg, Period 2, Day 7, sample diluted 2-fold, LLOQ = […]",BLQ^b
same,Muscle AT2220 Conc,"[2]; Patient J, 100 mg, Period 2, Day 3, sample diluted 3-fold, LLOQ = […]",BLQ^c
same,clearance from muscle,"[2]; all four cohorts, Day 7",cleared from muscle to near-undetectable levels by Day 7
same,concentration at 7 day,"[2]; 50 mg, Cohort 1, 50 mg AT2220, Period 2, biopsy Day 7, individual subjects, LLOQ = 8.0 ng/g (16.0 or […] for diluted samples)",13.1 ng/g
same,concentration at 7 day,"[2]; 50 mg, Patient A, 50 mg, Period 2, Day 7, LLOQ = 8.0 ng/g",11.8 ng/g
same,concentration at 7 day,"[2]; 50 mg, Patient B, 50 mg, Period 2, Day 7, LLOQ = 8.0 ng/g",10 ng/g
same,concentration at 7 day,"[2]; 50 mg, Patient C, 50 mg, Period 2, Day 7, LLOQ = 8.0 ng/g",13.1 ng/g
same,concentration at 3 day,"[2]; 100 mg, Cohort 2, 100 mg AT2220, Period 2, biopsy Day 3, individual subjects, LLOQ = 8.0 ng/g (16.0 or […] for diluted samples)",17.8 ng/g
same,concentration at 3 day,"[2]; 100 mg, Patient E, 100 mg, Period 2, Day 3, LLOQ = 8.0 ng/g",17.8 ng/g
same,concentration at 3 day,"[2]; 250 mg, Cohort 3, 250 mg AT2220, Period 2, biopsy Day 3, individual subjects, LLOQ = 8.0 ng/g (16.0 or […] for diluted samples)",54.4 ng/g
same,concentration at 7 day,"[2]; 250 mg, Cohort 3, 250 mg AT2220, Period 2, biopsy Day 7, individual subjects, LLOQ = 8.0 ng/g (16.0 or […] for diluted samples)",28.1 ng/g
rhGAA: human recombinant acid α-glucosidase; alglucosidase alfa (Myozyme/Lumizyme) enzyme replacement therapy given by intravenous infusion,"rhGAA Activity in PBMCs, % Change from Period 1",GAA; [4],−13.9%
same,"rhGAA Activity in PBMCs, Period 2/Period 1 Ratio",GAA; [4],0.9
same,"rhGAA Activity in PBMCs, % Change from Period 1",GAA; [5],4.1%
same,"rhGAA Activity in PBMCs, Period 2/Period 1 Ratio",GAA; [5],1.0
same,"rhGAA Activity in PBMCs, % Change from Period 1",GAA; [6],157%
same,"rhGAA Activity in PBMCs, Period 2/Period 1 Ratio",GAA; [6],2.6
same,"rhGAA Activity in PBMCs, % Change from Period 1",GAA; [7],−17.5%
same,"rhGAA Activity in PBMCs, Period 2/Period 1 Ratio",GAA; [7],0.8
same,"rhGAA Activity in PBMCs, % Change from Period 1",GAA; [8],81.0%
same,"rhGAA Activity in PBMCs, Period 2/Period 1 Ratio",GAA; [8],1.8
same,"rhGAA Activity in PBMCs, % Change from Period 1",GAA; [9],−36.7%
same,"rhGAA Activity in PBMCs, Period 2/Period 1 Ratio",GAA; [9],0.6
same,"rhGAA Activity in PBMCs, % Change from Period 1",GAA; [10],−5.9%
same,"rhGAA Activity in PBMCs, Period 2/Period 1 Ratio",GAA; [10],0.9
same,"rhGAA Activity in PBMCs, % Change from Period 1",GAA; [11],−12.4%
same,"rhGAA Activity in PBMCs, Period 2/Period 1 Ratio",GAA; [11],0.9
same,"rhGAA Activity in PBMCs, % Change from Period 1",GAA; [12],−8.4%
same,"rhGAA Activity in PBMCs, Period 2/Period 1 Ratio",GAA; [12],0.9
same,"rhGAA Activity in PBMCs, % Change from Period 1",GAA; [13],47.5%
same,"rhGAA Activity in PBMCs, Period 2/Period 1 Ratio",GAA; [13],1.5
same,"rhGAA Activity in PBMCs, % Change from Period 1",GAA; [14],240%
same,"rhGAA Activity in PBMCs, Period 2/Period 1 Ratio",GAA; [14],3.4
same,"rhGAA Activity in PBMCs, % Change from Period 1",GAA; [15],49.0%
same,"rhGAA Activity in PBMCs, Period 2/Period 1 Ratio",GAA; [15],1.5
same,"rhGAA Activity in PBMCs, % Change from Period 1",GAA; [16],107%
same,"rhGAA Activity in PBMCs, Period 2/Period 1 Ratio",GAA; [16],2.1
same,"rhGAA Activity in PBMCs, % Change from Period 1",GAA; [17],1028%
same,"rhGAA Activity in PBMCs, Period 2/Period 1 Ratio",GAA; [17],11.3
same,administered ERT captured by circulating antibodies,[3],approximately 40%
same,Pompe patients with infusion associated reactions,[3]; patients receiving ERT infusions,approximately 50%
